Reference: patent publication US20210371459A1, “DIMERIC PEPTIDE INHIBITORS OF APOPTOSIS PROTEINS” (Hepagene Therapeutics (HK) Limited, priority 2017, published 2021)

Key:
Conditions in all cases: FP, probe AbuRPFK-5FAM, 60 min at 25° C.
[1] = target: T1, XIAP-BIR3 (Homo sapiens, UniProt P98170); assay: XIAP-BIR3 fluorescence polarization binding assay
T1 construct: purchased Reaction Biology APT-11-374
Source text: (§1) IAPs are one main cause of cancer development and may result from overexpression of anti-apoptotic proteins. This protocol establishes three binding assays for XIAP Bir3 domain, cIAP1 and cIAP2 using FP (Fluorescence polarization) technology. The fluorescence probe used is a synthetic peptide conjugated to 5-carboxyfluorescein (AbuRPFK-5FAM). The fluorescence polarization value (mP) was detected by Envision, which was used to reflect the binding degree of protein and fluorescent marker. Reagents and equipment used in the assay are listed below, followed by the protocol.
(§2) • a) Prepare 100 times of the final cpd concentration in appropriate tube and transfer 5 uL compound (“cpd”) to 45 μL 1× reaction buffer with 10% DMSO. • b) The final reference cpd concentration is 10000, 3333.3, 1111.1, 370.4, 123.4, 41.2, 13.7, 4.57, 1.52, 0.51, 0.17 and 0 nM. So the 100 times of the concentration is 1000, 333.3, 111.1, 37.04, 12.34, 4.12, […], 0.15, 0.05, 0.017 and 0 μM. The final test cpds concentration is 3333.3, 1111.1, 370.4, 123.4, 41.2, 13.7, 4.57, 1.52, 0.51, 0.17, 0.057 and 0 nM. So the 100 times of the concentration is 333.3, 111.1, 37.04, 12.34, 4.12, […], 0.15, 0.05, 0.017, 0.0057 and 0 μM • c) Add 8 μL/well each dose enzyme to 384 well microplate (ProxiPlate-384 F Plus, 6008260) using multichannel pipette, prepared in step 2.1.1.2 • d) Centrifuge at 1000 rpm. • e) Add 2 μL/well cpd to 384 well microplate (ProxiPlate-384 F Plus, 6008260) using multichannel pipette, prepared in step a). • f) Centrifuge at 1000 rpm. RT, 15 min. • g) Start the assay by adding 10 uL/well substrate (prepared in step 2.1.1.3) to the same 384 well microplate using multichannel pipette • h) Centrifuge at 1000 rpm. • i) Cover the assay plate and incubate for 60 min at 25° C. • j) Read on Envision 2104 for mP and plot the IC50s with mP values. • k) Data analysis: IC50s were determined based on a non-linear regression analysis of data collected.

[2] = target: T2, cIAP1-BIR3 (Homo sapiens, UniProt Q13490); assay: cIAP1-BIR3 fluorescence polarization binding assay
T2 construct: cIAP1-BIR3; Reaction Biology; APT-11-370; purchased Reaction Biology APT-11-370
T2 sequence (Q13490 253-363 limits assumed): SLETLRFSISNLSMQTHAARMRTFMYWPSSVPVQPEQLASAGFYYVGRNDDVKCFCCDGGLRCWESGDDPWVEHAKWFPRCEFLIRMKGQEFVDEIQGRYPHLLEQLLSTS
Source text: as §1, §2

[3] = target: T3, cIAP2-BIR3 (Homo sapiens, UniProt Q13489); assay: cIAP2-BIR3 fluorescence polarization binding assay
T3 construct: cIAP2-BIR3; Reaction Biology; APT-11-372; purchased Reaction Biology APT-11-372
T3 sequence (Q13489 238-349 limits assumed): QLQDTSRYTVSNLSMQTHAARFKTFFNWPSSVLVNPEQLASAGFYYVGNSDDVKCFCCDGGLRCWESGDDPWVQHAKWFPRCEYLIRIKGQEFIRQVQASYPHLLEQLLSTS
Source text: as §1, §2

T1 sequence (P98170 241-356 limits assumed): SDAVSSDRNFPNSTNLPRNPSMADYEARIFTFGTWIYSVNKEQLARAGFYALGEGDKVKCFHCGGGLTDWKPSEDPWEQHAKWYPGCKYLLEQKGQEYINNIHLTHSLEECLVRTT

| IC50 [1] [nM] | IC50 [2] [nM] | IC50 [3] [nM] | Compound |
| --- | --- | --- | --- |
| 10 to 100 | 0.1 to 10 | 10 to 100 | CN[C@@H](C)C(=O)N[C@H](C(=O)N1CCC[C@H]1C(=O)N[C@@H]1CCCc2c1cccc2N1CCN(c2cccc3c2CCC[C@H]3NC(=O)[C@@H]2CCCN2C(=O)[C@@H](NC(=O)[C@H](C)NC)C2CCCCC2)CC1)C1CCCCC1 [Compound I, (2S)-1-[(2S)-2-Cyclohexyl-2-[(2S)-2-(methylamino)propanamido]acetyl]-N-[(1R)-5-[4-[(5R)-5-[(2S)-1-[(2S)-2-cyclohexyl-2-[(2S)-2-(methylamino)propanamido]acetyl]pyrrolidine-2-amido]-5,6,7,8-tetrahydronaphthalen-1-yl]piperazin-1-yl]-1,2,3,4-tetrahydronaphthalen-1-yl]pyrrolidine-2-carboxamide] |
| 100 to 1000 | 0.1 to 10 | 10 to 100 | CC[C@H](NC(=O)[C@H](C)NC)C(=O)N1CCC[C@H]1C(=O)N[C@@H]1CCCc2c1cccc2N1CCN(c2cccc3c2CCC[C@H]3NC(=O)[C@@H]2CCCN2C(=O)[C@H](CC)NC(=O)[C@H](C)NC)CC1 [Compound I-B, (2S)-1-[(2S)-2-[(2S)-2-(Methylamino)propanamido]butanoyl]-N-[(1R)-5-[4-[(5R)-5-[(2S)-1-[(2S)-2-[(2S)-2-(methylamino)propanamido]butanoyl]pyrrolidine-2-amido]-5,6,7,8-tetrahydronaphthalen-1-yl]piperazin-1-yl]-1,2,3,4-tetrahydronaphthalen-1-yl]pyrrolidine-2-carboxamide] |
| 10 to 100 | 0.1 to 10 | 10 to 100 | CN[C@@H](C)C(=O)N[C@H](C(=O)N1CCC[C@H]1C(=O)N[C@@H]1CCCc2c1cccc2N1CCN(c2cccc3c2CCC[C@H]3NC(=O)[C@@H]2CCCN2C(=O)[C@@H](NC(=O)[C@H](C)NC)C(C)C)CC1)C(C)C [Compound I-C, (S)-1-((S)-3-Methyl-2-((S)-2-(methylamino)propanamido)butanoyl)-N—((R)-5-(4-((R)-5-((S)-1-((S)-3-methyl-2-((S)-2-(methylamino)propanamido)butanoyl)pyrrolidine-2-carboxamido)-5,6,7,8-tetrahydronaphthalen-1-yl)piperazin-1-yl)-1,2,3,4-tetrahydronaphthalen-1-yl)pyrrolidine-2-carboxamide] |

Further lines, the compound ahead of its results:

| Compound | IC50 [1] [nM] | IC50 [2] [nM] | IC50 [3] [nM] |
| --- | --- | --- | --- |
| CN[C@@H](C)C(=O)N[C@H](C(=O)N1CCC[C@H]1C(=O)N[C@@H]1CCCc2c1cccc2N1CCN(c2cccc3c2CCC[C@H]3NC(=O)[C@@H]2CCCN2C(=O)[C@@H](NC(=O)[C@H](C)NC)C(C)(C)C)CC1)C(C)(C)C [Compound I-A, (2S,2′S,29S,34S)—N, N′-((1R,1′R)-5,5′-(Piperazine-1,4-diyl)bis(1,2,3,4-tetrahydronaphthalene-5,1-diyl))bis(1-((S)-3,3-dimethyl-2-((S)-2-(methylamino)propanamido)butanoyl)pyrrolidine-2-carboxamide)] | 100 to 1000 | 0.1 to 10 | 10 to 100 |
| CN[C@@H](C)C(=O)N[C@H](C(=O)N1C[C@@H](OCCCN2CCN(CCCO[C@H]3C[C@@H](C(=O)N[C@@H]4CCCc5ccccc54)N(C(=O)[C@@H](NC(=O)[C@H](C)NC)C4CCCCC4)C3)CC2)C[C@H]1C(=O)N[C@@H]1CCCc2ccccc21)C1CCCCC1 [Compound II, (2S,4S)-1-[(2S)-2-Cyclohexyl-2-[(2S)-2-(methylamino)propanamido]acetyl]-4-[3-[4-(3-[[(3S,5S)-1-[(2S)-2-cyclohexyl-2-[(2S)-2-(methylamino)propanamido]acetyl]-5-[[(1R)-1,2,3,4-tetrahydronaphthalen-1-yl]carbamoyl]pyrrolidin-3-yl]oxy]propyl)piperazin-1-yl]propoxy]-N-[(1R)-1,2,3,4-tetrahydronaphthalen-1-yl]pyrrolidine-2-carboxamide] | 10 to 100 | 0.1 to 10 | 10 to 100 |
| CN[C@@H](C)C(=O)N[C@@H](C)C(=O)N1C[C@@H](OCCCN2CCN(CCCO[C@H]3C[C@@H](C(=O)N[C@@H]4CCCc5ccccc54)N(C(=O)[C@H](C)NC(=O)[C@H](C)NC)C3)CC2)C[C@H]1C(=O)N[C@@H]1CCCc2ccccc21 [Compound II-A, (2S,4S)-1-[(2S)-2-[(2S)-2-(Methylamino)propanamido]propanoyl]-4-{3-[4-(3-{[(3S,5S)-1-[(2S)-2-[(2S)-2-(methylamino)propanamido]propanoyl]-5-{[(1R)-1,2,3,4-tetrahydronaphthalen-1-yl]carbamoyl}pyrrolidin-3-yl]oxy}propyl)piperazin-1-yl]propoxy}-N-[(1R)-1,2,3,4-tetrahydronaphthalen-1-yl]pyrrolidine-2-carboxamide] | 100 to 1000 | 0.1 to 10 | 10 to 100 |
| CC[C@H](NC(=O)[C@H](C)NC)C(=O)N1C[C@@H](OCCCN2CCN(CCCO[C@H]3C[C@@H](C(=O)N[C@@H]4CCCc5ccccc54)N(C(=O)[C@H](CC)NC(=O)[C@H](C)NC)C3)CC2)C[C@H]1C(=O)N[C@@H]1CCCc2ccccc21 [Compound II-B, (2S,4S)-1-[(2S)-2-[(2S)-2-(Methylamino)propanamido]butanoyl]-4-{3-[4-(3-{[(3S,5S)-1-[(2S)-2-[(2S)-2-(methylamino)propanamido]butanoyl]-5-{[(1R)-1,2,3,4-tetrahydronaphthalen-1-yl]carbamoyl}pyrrolidin-3-yl]oxy}propyl)piperazin-1-yl]propoxy}-N-[(1R)-1,2,3,4-tetrahydronaphthalen-1-yl]pyrrolidine-2-carboxamide] | 10 to 100 | 0.1 to 10 | 0.1 to 10 |
| CN[C@@H](C)C(=O)N[C@H](C(=O)N1C[C@@H](OCCCN2CCN(CCCO[C@H]3C[C@@H](C(=O)N[C@@H]4CCCc5ccccc54)N(C(=O)[C@@H](NC(=O)[C@H](C)NC)C(C)C)C3)CC2)C[C@H]1C(=O)N[C@@H]1CCCc2ccccc21)C(C)C [Compound II-C, (2S,4S)-1-[(2S)-3-Methyl-2-[(2S)-2-(methylamino)propanamido]butanoyl]-4-{3-[4-(3-{[(3S,5S)-1-[(2S)-3-methyl-2-[(2S)-2-(methylamino)propanamido]butanoyl]-5-{[(1R)-1,2,3,4-tetrahydronaphthalen-1-yl]carbamoyl}pyrrolidin-3-yl]oxy}propyl)piperazin-1-yl]propoxy}-N-[(1R)-1,2,3,4-tetrahydronaphthalen-1-yl]pyrrolidine-2-carboxamide] | 0.1 to 10 | 0.1 to 10 | 0.1 to 10 |
| CN[C@@H](C)C(=O)N[C@H](C(=O)N1C[C@@H](OCCCN2CCN(CCCO[C@H]3C[C@@H](C(=O)N[C@@H]4CCCc5ccccc54)N(C(=O)[C@@H](NC(=O)[C@H](C)NC)C(C)(C)C)C3)CC2)C[C@H]1C(=O)N[C@@H]1CCCc2ccccc21)C(C)(C)C [Compound II-D, (2S,4S)-1-[(2S)-3,3-Dimethyl-2-[(2S)-2-(methylamino)propanamido]butanoyl]-4-[3-[4-(3-[[(3S,5S)-1-[(2S)-3,3-dimethyl-2-[(2S)-2-(methylamino)propanamido]butanoyl]-5-[[(1R)-1,2,3,4-tetrahydronaphthalen-1-yl]carbamoyl]pyrrolidin-3-yl]oxy]propyl)piperazin-1-yl]propoxy]-N-[(1R)-1,2,3,4-tetrahydronaphthalen-1-yl]pyrrolidine-2-carboxamide] | 10 to 100 | 0.1 to 10 | 10 to 100 |
| CN[C@@H](C)C(=O)N[C@H](C(=O)N1C[C@@H](OCCCN2CCN(CCCO[C@H]3C[C@@H](C(=O)N[C@@H]4CCCc5ccccc54)N(C(=O)[C@@H](NC(=O)[C@H](C)NC)C4CC4)C3)CC2)C[C@H]1C(=O)N[C@@H]1CCCc2ccccc21)C1CC1 [Compound II-F, (2S,4S)-1-[(2S)-2-Cyclopropyl-2-[(2S)-2-(methylamino)propanamido]acetyl]-4-[3-[4-(3-[[(3S,5S)-1-[(2S)-2-cyclopropyl-2-[(2S)-2-(methylamino)propanamido]acetyl]-5-[[(1R)-1,2,3,4-tetrahydronaphthalen-1-yl]carbamoyl]pyrrolidin-3-yl]oxy]propyl)piperazin-1-yl]propoxy]-N-[(1R)-1,2,3,4-tetrahydronaphthalen-1-yl]pyrrolidine-2-carboxamide] | 100 to 1000 | 0.1 to 10 | 10 to 100 |
